The source of these data is patent US20030186967A1, “Acylresorcinol derivatives are selective vitronectin receptor inhibitors” (American Home Products Corporation, priority 1998, published 2003).

Assay [1] concerns thyro-parathyroidectomized (TPTX) rats. The experiment in a line: PTH-induced hypercalcemia of thyroparathyroidectomized male rats. The format is in vivo, rat. The method, then: Effects of test compounds on PTH-induced hypercalcemia of thyroparathyroidectomized male rats
Male thyro-parathyroidectomized (TPTX) rats (Charles River) were randomly assigned to groups of 7 rats/group. Following a baseline serum calcium determination an Alzet 1003D minipump (Alza Corporation, Palo Alto, Calif.) loaded with 0.3 mg/ml PTH (Bachem, Philadelphia, Pa.) was implanted subcutaneously in each rat. For evaluation of prophylactic effects of a test drug, another minipump with appropriate concentration of the test drug solution was implanted subcutaneously at a site away from PTH minipump. Alternatively, test drugs were administered by oral gavage as a solution or uniform suspension in an appropriate medium depending on the physical properties of the test compound. A group of 7 unimplanted TPTX rats was set aside as a normal control group. Twenty hours after minipump implantation blood was collected from each rat to confirm the presence of hypercalcemia (judged by elevation of serum calcium levels, 2 SD>normal non-implanted level). At various intervals between 0.5 and 24 hours after dosing (usually one to three time points), blood was collected from each rat and the serum evaluated for total calcium. Serum calcium levels were measured using the Nova 7+7 calcium auto analyzer spectrophotometrically using the Sigma test kit (#587A). Test results were determined by the difference in serum calcium between vehicle and treatment group following PTH administration, using a one-way analysis of variance with Dunnett's test or other multiple comparison methods.

The test system of a further assay is osteoclasts. The assay is described as follows: Osteoclast Pitting Assay. The format is cell-based, rat. The method, then:
The assay is conducted as described in Murrills and Dempster (1990). Briefly, 4×4×0.2 mm slices of devitalized bovine cortical bone are numbered, placed in the wells of 96-well culture plates and wetted with 100 ul of Medium 199 containing Hanks salts, 10 mM HEPES, pH 7.0 (Medium 199/Hanks). Bone cell suspensions containing osteoclasts are prepared by mincing the long bones of neonatal rats (Sprague-Dawley, 4-6 days old) in Medium 199/Hanks. 100 uL of the suspension is then plated onto each slice and incubated 30 minutes to allow osteoclasts to adhere. The slices are rinsed to remove non-adherent cells and incubated 24 h in Medium 199 containing Earle's salts, 10 mM HEPES and 0.7 g/L NaHCO3, which equilibrates at pH 6.9 in a 5% CO2 atmosphere. At this pH the adherent osteoclasts excavate an adequate number of resorption pits for assay purposes. Slices are fixed in 2.5% glutaraldehyde and osteoclasts counted following tartrate-resistant acid phosphatase staining. […] All cells are stripped from the slice by sonication on 0.25M NH4OH and the resorption pits formed by the osteoclasts during the experiment stained with toluidine blue. Resorption pits are quantified by manually counting.
The experiments are conducted according to a block design with osteoclasts from each animal exposed to each treatment. Three replicate slices are used per treatment per animal, such that a total of 96 slices are examined for an experiment involving four animals and eight treatments (including control). Several parameters are recorded on a “per slice” basis: number of pits, number of osteoclasts, number of pits per osteoclast, number of fibroblast-like bone cells. SAS or JMP statistical software is used for statistical analysis. […] IC50s are calculated for active compounds using dose-response curves.
Reference Compound: Rat calcitonin.
Osteoclasts are responsible for the bone loss that occurs in the onset of osteoporosis and anti-resorptive drugs directed against the osteoclast are a requirement for patients losing bone.

In a further assay the target is T1, αVβ3 integrin (Homo sapiens, UniProt P05106+P06756).
T1 construct: αVβ3-expressing cell lines are maintained by standard tissue culture techniques; endogenous in cells; host or cells: αVβ3-expressing cell lines
T1 sequence (P06756 31-889 limits assumed): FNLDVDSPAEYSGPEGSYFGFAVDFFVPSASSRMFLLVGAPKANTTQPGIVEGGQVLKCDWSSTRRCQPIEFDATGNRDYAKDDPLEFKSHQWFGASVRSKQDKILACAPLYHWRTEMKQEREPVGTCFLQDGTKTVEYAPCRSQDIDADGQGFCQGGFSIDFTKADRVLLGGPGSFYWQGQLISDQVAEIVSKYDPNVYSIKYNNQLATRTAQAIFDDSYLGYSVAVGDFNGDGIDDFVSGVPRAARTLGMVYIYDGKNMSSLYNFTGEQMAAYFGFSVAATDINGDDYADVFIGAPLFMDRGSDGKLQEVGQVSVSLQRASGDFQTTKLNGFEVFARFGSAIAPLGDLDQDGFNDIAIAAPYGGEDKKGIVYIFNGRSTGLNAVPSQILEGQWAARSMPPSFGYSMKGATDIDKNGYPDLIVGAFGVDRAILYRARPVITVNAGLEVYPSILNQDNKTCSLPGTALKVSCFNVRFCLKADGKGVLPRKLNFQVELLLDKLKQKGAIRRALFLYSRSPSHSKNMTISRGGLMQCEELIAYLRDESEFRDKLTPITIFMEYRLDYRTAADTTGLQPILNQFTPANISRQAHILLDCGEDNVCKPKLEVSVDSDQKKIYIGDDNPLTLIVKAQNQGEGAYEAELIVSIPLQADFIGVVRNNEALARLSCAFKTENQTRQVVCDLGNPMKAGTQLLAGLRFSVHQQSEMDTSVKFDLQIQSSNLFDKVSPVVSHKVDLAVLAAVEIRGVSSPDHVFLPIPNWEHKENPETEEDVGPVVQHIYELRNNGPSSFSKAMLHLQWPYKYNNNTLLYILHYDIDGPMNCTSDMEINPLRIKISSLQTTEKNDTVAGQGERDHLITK
T1 sequence (P06756 891-1048 partner limits assumed): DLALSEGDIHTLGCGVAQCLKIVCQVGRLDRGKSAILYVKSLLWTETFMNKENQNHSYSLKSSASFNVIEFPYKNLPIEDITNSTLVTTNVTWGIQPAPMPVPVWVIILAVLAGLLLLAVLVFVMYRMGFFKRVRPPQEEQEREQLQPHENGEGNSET
T1 sequence (P05106 27-788): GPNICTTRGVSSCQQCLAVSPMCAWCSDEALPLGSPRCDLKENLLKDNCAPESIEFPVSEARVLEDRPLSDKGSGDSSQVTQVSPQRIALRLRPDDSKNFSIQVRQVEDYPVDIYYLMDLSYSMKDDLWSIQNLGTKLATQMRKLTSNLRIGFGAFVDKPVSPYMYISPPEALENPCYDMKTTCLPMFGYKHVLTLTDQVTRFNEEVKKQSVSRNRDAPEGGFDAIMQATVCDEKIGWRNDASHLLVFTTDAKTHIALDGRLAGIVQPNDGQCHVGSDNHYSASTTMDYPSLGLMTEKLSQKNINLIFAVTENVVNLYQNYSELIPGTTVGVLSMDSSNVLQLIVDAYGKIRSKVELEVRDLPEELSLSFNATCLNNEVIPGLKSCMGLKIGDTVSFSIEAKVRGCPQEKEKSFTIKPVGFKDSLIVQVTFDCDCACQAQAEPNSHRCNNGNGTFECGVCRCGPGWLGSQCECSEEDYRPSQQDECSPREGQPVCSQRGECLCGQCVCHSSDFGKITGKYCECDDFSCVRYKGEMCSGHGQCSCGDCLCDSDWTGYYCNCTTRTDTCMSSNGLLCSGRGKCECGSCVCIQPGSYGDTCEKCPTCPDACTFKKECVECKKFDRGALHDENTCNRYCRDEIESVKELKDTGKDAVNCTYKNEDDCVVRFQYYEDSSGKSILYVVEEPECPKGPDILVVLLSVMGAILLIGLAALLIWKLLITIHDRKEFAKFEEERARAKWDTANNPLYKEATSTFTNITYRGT
The experiment in a line: Osteopontin-αVβ3 Cell Attachment Assay. The format is cell-based. Here is the method: Osteopontin-αVβ3 Cell Attachment Assay The purpose of this assay is to measure the effect of various compounds on the RGD-dependent attachment of cells to osteopontin mediated by the αVβ3 integrin. […] Following the blocking period, wells are aspirated and washed once with D-PBS. Cell Suspension αVβ3-expressing cell lines are maintained by standard tissue culture techniques. […] The cells are pelleted by low-speed centrifugation and washed three times with 0.5 mg/mL trypsin inhibitor in D-PBS (Sigma). The final cell pellet is resuspended in cell suspension media at a concentration of 10^6 cells/mL. Attachment Assay Incubation: […] of diluted test compound is added to osteopontin-coated wells (in triplicate) followed by […] of cell suspension; background cell attachment is determined in uncoated wells. The plate is incubated at 25° C. in a humidified air atmosphere for 1.5 hours. Following the incubation period, the wells are gently aspirated and washed once with D-PBS. Cell Number Detection: The number of cells attached is determined by an MTT dye conversion assay (Promega) according to the manufacturer's instructions. Briefly, MTT dye is diluted in cell suspension media (15:85) and […] is added to each well. […] The assay plates are covered and incubated at 37° C. in a humidified air atmosphere overnight. […] Reference Compounds Various […]

Assay [2] addresses T2, Vitronectin receptor αVβ3 (Homo sapiens, UniProt P05106+P06756).
T2 construct: expressed in transfected cells; host or cells: 512P5 cells (plasma membrane preparation)
The assay is described as follows: Vitronectin Receptor αVβ3 Binding Assay. The note with it: for IC50: read-out: VnR (IC50μM).

[3] abbreviates: Osteoclast Pitting Assay, neonatal rat osteoclasts on bovine cortical bone slices, read-out: IC50 (μM) Bone Pitting.
The mark [4] stands for this setting: Rattus norvegicus, sc, 100 mg/kg.

Structures can show the parent of a compound that is named as a salt. Where two headings read alike, the source gives them in different places. Ends that are not written are not given here. A value given as a limit tells only on which side of the number the result lay.

T2 sequence (P06756 31-889 limits assumed): as the sequence (P06756 31-889 limits assumed) above
T2 sequence (P06756 891-1048 partner limits assumed): as the sequence (P06756 891-1048 partner limits assumed) above
T2 sequence (P05106 27-788): as the sequence (P05106 27-788) above

On to `CCOC(=O)[C@H](CNC(=O)c1ccc(OCCNc2ncccn2)cc1O)NS(=O)(=O)c1ccccc1` [Example 273], for which the “TPTX (% inhibition)” value in assay [1] (100 mg/kg, s.c.) is listed as 57%. Consider `O=C(NC[C@H](NS(=O)(=O)c1ccccc1)C(=O)O)c1ccc(OCCNc2ncccn2)cc1O` [Example 274], for which the IC50 with osteoclasts (setting [3]) turned out to be 0.9 µM; at αVβ3 integrin, 18 µM. Moreover, in assay [1] (setting [4]), the inhibition in vivo at 100 mg/kg was 54%. Take `O=C(NC[C@H](NS(=O)(=O)c1ccccc1)C(=O)O)c1ccc(OCCNC2=NCCCN2)cc1O` [Example 275, 2(S)-Benzenesulfonylamino-3-[2-hydroxy-4-[2-(3,4,5,6-tetrahydro-pyrimidin-2-ylamino)ethoxy]benzoylamino]propionic acid hydrochloride]: the figures for the IC50 in the assay on osteoclasts (setting [3]) and at αVβ3 integrin were 0.43 µM and 0.002 µM, respectively. The inhibition in vivo at 100 mg/kg was 39% in assay [1] (Rattus norvegicus, po, 100 mg/kg) and 112% in assay [1] (setting [4]). In assay [1] (Rattus norvegicus, sc, 30 mg/kg), the inhibition in vivo at 30 mg/kg is 64%. In addition, the inhibition in vivo at 75 mg/kg in assay [1] (Rattus norvegicus, sc, 75 mg/kg) was 105%. On to `O=C(N[C@@H](CNC(=O)c1ccc(OCCNC2=NCCCN2)cc1O)C(=O)O)OCc1ccccc1` [Example 278, 2(S)-Benzyloxycarbonylamino-3-[2-hydroxy-4-[2-(3,4,5,6-tetrahydro-pyrimidin-2-ylamino)ethoxy]benzoylamino]propionic acid hydrochloride], for which the IC50 in the assay with osteoclasts (setting [3]) was found to be 0.5 µM; against αVβ3 integrin, 0.02 µM. On to `CCOC(=O)CC(NC(=O)c1ccc(OCCNC(=N)N)cc1O)c1ccccc1` (stereo not drawn) [Example 279, 3-[4-(2-Guanidinoethoxy)-2-hydroxy-benzoylamino]-3-phenylpropanoic acid ethyl ester hydrochloride], for which the IC50 in assay [2] came out at 0.013 µM. Besides, the inhibition in vivo at 100 mg/kg in assay [1] (setting [4]) was 59%. As to `N=C(N)NCCOc1ccc(C(=O)NC(CC(=O)O)c2ccccc2)c(O)c1` (stereo not drawn) [Example 280, 3-[4-Guanidinoethoxy)-2-hydroxy-benzoylamino]-3-phenylpropanoic acid, hydrochloride], the “IC50 (μM) Bone Pitting” value with osteoclasts (Osteoclast Pitting Assay, neonatal rat osteoclasts on bovine cortical bone slices) is “inactive @ 200”. Besides, the IC50 in assay [2] came to 12.3 µM; on αVβ3 integrin, 78 µM. Take `O=C(O)CC(NC(=O)c1ccc(OCCNC2=NCCCN2)cc1O)c1cccnc1` (stereo not drawn) [Example 282, 3-[2-Hydroxy-4-[2-(3,4,5,6-tetrahydropyrimidine-2ylamino)-ethoxy]benzoylamino]-3-pyridin-3-ylpropionic acid]: the “VnR, % @ 100” value in assay [2] (@ 100) is −42% @ 100. For the same molecule, the IC50 on αVβ3 integrin was found to be 33 µM. Take `CCOC(=O)CC(NC(=O)c1ccc(OCCNC2=NCCCN2)cc1O)c1cccnc1` (stereo not drawn) [Example 283, 3-[2-Hydroxy-4-[2-(3,4,5,6-tetrahydropyrimidin-2-ylamino)ethoxy]benzoylamino]-3-pyridin-3-ylpropionic acid ethyl ester dihydrocloride]: the IC50 in assay [2] amounted to 123 µM. With `N=C(N)NCCOc1ccc(C(=O)NC(CC(=O)O)c2cccnc2)c(O)c1` (stereo not drawn) [Example 285, 3-[4-(2-Guanidino-ethoxy)-2-hydroxybenzoyl-amino]-3-pyridin-3-yl-propanoic acid], the IC50 in assay [2] stood at 5 µM; against αVβ3 integrin, 56 µM. The like results for `O=C(O)CC(NC(=O)c1ccc(OCCNc2ncccn2)cc1O)c1cccnc1` (stereo not drawn) [Example 286, 3-[2-hydroxy-4-[2-(pyrimidin-2-ylamino)-ethoxy]benzoylamino]-3-pyridin-3-yl-propanoic acid] were, in that order, 2.8 µM and 86 µM. As for `O=C(O)CC(NC(=O)c1ccc(OCCNc2ncccn2)cc1O)c1ccccc1` (stereo not drawn) [Example 287, 3-[2-hydroxy-4-[2-(pyrimidin-2-ylamino)-ethoxy]benzoyl-amino]-3-phenyl-propanoic acid hydrochloride], the IC50 in assay [2] stood at 0.26 µM. Take `CCOC(=O)CC(NC(=O)c1ccc(OCCNc2ncccn2)cc1O)c1ccccc1` (stereo not drawn) [Example 288, 3-[2-hydroxy-4-[2-(pyrimidin-2-ylamino)-ethoxy]benzoyl-amino]-3-phenyl-propanoic acid ethyl ester]: the IC50 in the assay on osteoclasts (Rattus norvegicus, Osteoclast, read-out: bone pitting IC50) stood at 0.44 µM; in assay [2] it was 0.003 µM. As for `O=C(O)CC(NC(=O)c1ccc(OCCNC2=NCCCN2)cc1O)c1ccccc1` (stereo not drawn) [Example 291, 3-[2-hydroxy-4-[2-(3,4,5,6-tetrahydropyrimidin-2-ylamino)ethoxy]-benzoylamino]-3-phenyl-propanoic acid], the IC50 in assay [2] turned out to be 0.44 µM; at αVβ3 integrin it was 28 µM. Besides, in assay [1] (setting [4]), the inhibition in vivo at 100 mg/kg is 41%. `CCOC(=O)CC(NC(=O)c1ccc(OCCNC2=NCCCN2)cc1O)c1ccccc1` (stereo not drawn) [Example 292, 3-[2-hydroxy-4-[2-(3,4,5,6-tetrahydropyrimidin-2-ylamino)ethoxy]-benzoylamino]-3-phenyl-propanoic acid ethyl ester hydrochloride]: the IC50 in assay [2] stood at 0.115 µM. The inhibition in vivo at 100 mg/kg in assay [1] (setting [4]) was 111%. Take `NC(CNC(=O)c1ccc(OCCNC2=NCCCN2)cc1O)C(=O)O` (stereo not drawn) [Example 295, 2-Amino-3-[2-hydroxy-4-[2-(3,4,5,6-tetra-hydropyrimidin-2-ylamino)ethoxy]-benzoylamino]propionic acid dihydrochloride]: the IC50 in assay [2] came to 0.0018 µM. Turning to `O=C(N[C@@H](CNC(=O)c1ccc(OCCNc2ncccn2)cc1O)C(=O)O)OCc1ccccc1` [Example 297, 2(S)-Benzyloxycarbonylamino-3-[2-hydroxy-4-[2-(pyrimidin-2-ylamino)ethoxy]-benzoylamino]propionic acid], the figures for the IC50 in the assay on osteoclasts (setting [3]) and against αVβ3 integrin were 25 µM and 50 µM, respectively. In the case of “(2S)-3-({2-hydroxy-4-[2-(pyrimidin-2-ylamino)ethoxy]benzoyl3 amino)-2-{[(4-methoxyanilino)carbonyl]amino}propanoic acid [Example 74]”, the IC50 in assay [2] was over 1 µM. Same read-out and setting: next, “(2S)-3-({2-hydroxy-4-[2-(pyrimidin-2-ylamino)ethoxy]benzoyl}amino)-2-{[1-naphthylamino)carbonyl]amino}propanoic acid [Example 91]”: over 1 µM. With “Calcitonin: anti-resorptive used in the clinic; rat calcitonin is the reference compound of the pitting assay (CGNLSTCMLGTYTQDLNKFHTFPQTSIGVGAP; ends and bridges not checked; cysteine pairing not given here; UniProt P01257 85-116, looked up) [reference compound]”, the osteoclast inhibitory activity result with osteoclasts is given as “significant osteoclast inhibitory activity”. As to GRGESP [reference compound], in assay [2] (reference peptides, 125I-Echistatin 50 pM, 512P5 (αVβ3-overexpressing) cell membranes), the “IC50 (μM)” value is “inactive at 100 μM”.

One may read the inhibition in vivo as the drop in the measured response relative to a control, in per cent.
